Test results: patent US20240174639A1, “PYRIDINE DERIVATIVES USEFUL AS HCN2 MODULATORS” (King's College London, priority 2021, published 2024)
Where a name gives a salt, the structure may show the parent alone.

Tests used:
Black6 strain mice = assay: Bradycardia testing, heart rate by MouseOx pulse oximeter (Example 58); assay type: in vivo; details: 0.2 mg/kg i.p., awake Black6 mice
Protocol: Test compounds were administered i.p. to awake, behaving, Black6 strain mice together with a vehicle only control arm. Heart rate in the mice were measured with MouseOx pulse oximeter.
The compound of Example 2 was administered to awake, behaving, Black6 strain mice at doses ranging from 0.05 mg/kg to 2 mg/kg. The effect of the compound of Example 2 on heart beat is shown in FIG. 11 compared to ivabradine administered at a dose of 5 mg/kg i.p, and a vehicle control.

HCN4 = biological target: T1, HCN4 (Homo sapiens, UniProt Q9Y3Q4); assay: HCN4 assay using PatchXpress 7000A (Example 50A); assay type: cell-based; details: PatchXpress protocol (PX)
T1 sequence (Q9Y3Q4 1-1203): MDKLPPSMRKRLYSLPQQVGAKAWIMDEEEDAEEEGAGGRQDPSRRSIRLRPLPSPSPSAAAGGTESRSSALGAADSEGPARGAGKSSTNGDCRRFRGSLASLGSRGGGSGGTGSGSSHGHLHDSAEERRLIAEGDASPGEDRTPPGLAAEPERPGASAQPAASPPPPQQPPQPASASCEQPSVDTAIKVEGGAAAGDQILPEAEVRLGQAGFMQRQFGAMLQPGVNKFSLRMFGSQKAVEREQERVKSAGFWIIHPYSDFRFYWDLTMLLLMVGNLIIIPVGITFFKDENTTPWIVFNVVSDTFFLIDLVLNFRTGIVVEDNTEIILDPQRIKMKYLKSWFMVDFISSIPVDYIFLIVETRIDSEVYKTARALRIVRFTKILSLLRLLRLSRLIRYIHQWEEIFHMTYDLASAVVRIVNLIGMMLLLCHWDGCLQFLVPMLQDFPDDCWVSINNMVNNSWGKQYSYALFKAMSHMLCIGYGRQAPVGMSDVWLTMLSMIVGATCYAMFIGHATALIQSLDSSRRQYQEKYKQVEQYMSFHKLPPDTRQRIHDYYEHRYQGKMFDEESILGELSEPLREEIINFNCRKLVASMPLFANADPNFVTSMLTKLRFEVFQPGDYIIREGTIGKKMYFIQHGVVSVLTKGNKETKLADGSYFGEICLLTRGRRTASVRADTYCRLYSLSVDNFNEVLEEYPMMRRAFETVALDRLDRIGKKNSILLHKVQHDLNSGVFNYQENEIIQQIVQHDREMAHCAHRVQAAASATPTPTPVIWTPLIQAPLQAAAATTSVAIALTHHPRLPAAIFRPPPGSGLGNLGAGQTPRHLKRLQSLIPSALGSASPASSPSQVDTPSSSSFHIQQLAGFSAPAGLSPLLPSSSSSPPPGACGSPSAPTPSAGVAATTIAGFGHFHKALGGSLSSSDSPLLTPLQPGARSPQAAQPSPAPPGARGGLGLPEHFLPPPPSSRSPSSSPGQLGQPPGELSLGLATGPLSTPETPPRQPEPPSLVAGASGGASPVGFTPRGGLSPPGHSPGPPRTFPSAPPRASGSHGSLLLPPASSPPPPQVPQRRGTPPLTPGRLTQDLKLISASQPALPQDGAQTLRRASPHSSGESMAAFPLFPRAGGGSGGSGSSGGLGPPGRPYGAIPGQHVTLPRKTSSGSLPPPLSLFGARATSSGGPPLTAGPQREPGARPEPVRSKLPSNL
Summary of the method: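 Automated patch clamp, room temperature (~22° C). Current evoked by 4 s step from −30 mV holding to −130 mV; peak inward current at pulse end, leak-subtracted, normalized to control amplitude. Cumulative concentrations applied 7 min each; 3 mM CsCl for 2 min defines 100% inhibition.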

HCN2 = biological target: T2, HCN2 (Homo sapiens, UniProt Q9UL51); assay: HCN2 assay using PatchXpress 7000A (Example 50A); assay type: cell-based
T2 sequence (Q9UL51 1-889): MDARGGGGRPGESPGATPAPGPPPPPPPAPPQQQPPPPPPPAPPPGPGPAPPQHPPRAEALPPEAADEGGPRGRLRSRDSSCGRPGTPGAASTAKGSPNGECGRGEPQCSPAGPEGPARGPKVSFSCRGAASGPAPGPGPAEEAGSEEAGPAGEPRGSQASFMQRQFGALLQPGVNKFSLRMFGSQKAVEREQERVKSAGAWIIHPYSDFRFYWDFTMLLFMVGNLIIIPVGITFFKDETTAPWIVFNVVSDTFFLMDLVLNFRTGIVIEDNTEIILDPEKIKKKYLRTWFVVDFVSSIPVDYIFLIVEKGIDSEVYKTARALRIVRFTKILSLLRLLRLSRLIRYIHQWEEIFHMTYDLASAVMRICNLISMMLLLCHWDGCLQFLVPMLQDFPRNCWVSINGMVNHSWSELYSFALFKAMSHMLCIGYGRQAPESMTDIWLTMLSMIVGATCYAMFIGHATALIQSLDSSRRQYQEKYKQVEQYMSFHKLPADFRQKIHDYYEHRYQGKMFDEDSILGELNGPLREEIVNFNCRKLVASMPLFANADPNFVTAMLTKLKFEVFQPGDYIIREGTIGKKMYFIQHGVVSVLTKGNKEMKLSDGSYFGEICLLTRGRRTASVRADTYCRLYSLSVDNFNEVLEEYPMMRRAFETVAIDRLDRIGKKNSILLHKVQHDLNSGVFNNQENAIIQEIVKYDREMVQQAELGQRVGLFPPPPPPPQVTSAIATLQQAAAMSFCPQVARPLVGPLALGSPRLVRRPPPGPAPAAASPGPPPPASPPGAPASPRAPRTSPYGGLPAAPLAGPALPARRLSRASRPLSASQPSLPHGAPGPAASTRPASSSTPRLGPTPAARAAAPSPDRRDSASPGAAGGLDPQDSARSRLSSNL
Summary of the method: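 Patch clamp at ~22 °C: hold −30 mV, step to −110 mV 2 s, return to −30 mV 8 s, repeated every 10 s. Five cumulative compound concentrations, 7 min each; leak-subtracted end-pulse current normalised to pre-drug control, with 3 mM CsCl defining 100% inhibition.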

WT Black6 strain mice = assay: Mouse neuropathic pain model (partial sciatic nerve ligation), von Frey filament (Example 57); assay type: in vivo; details: 0.2 mg/kg i.p., day 5 after PSNL
Protocol: The compounds of Example 2 and Example 4 were tested in a mouse neuropathic pain model using WT Black6 strain mice. The model used was analogous to the model described in Seltzer Z, Dubner R, & Shir Y (1990), A novel behavioural model of neuropathic pain disorders produced in rats by partial sciatic nerve injury, Pain 43: 205-218). […] Sci Transl Med 9: eaam6072.
The test compounds were administered i.p. to the mice on day 5 following partial sciatic nerve ligation surgery, average data from 3-4 mice. The mechanical pain threshold was measured by manual von Frey filament applied to hind paw on the operated side, using the “up-down” method. The test compounds were compared to ivabradine at 5 mg/kg i.p. and i.p. injection of vehicle.

guinea pigs [1] = assay: Tinnitus, short-term salicylate model, GPIAS test (Example 54); assay type: in vivo; details: salicylate 350 mg/kg i.p., 2 h, ivabradine 5 mg/kg s.c.
Source text: (§1) Tinnitus in guinea pigs was monitored using the gap induced inhibition of the acoustic startle (GPIAS) test (see FIG. 5). GPIAS is reduced when tinnitus was present; see Berger, J. I. et al. Effects of the cannabinoid CB1 agonist ACEA on salicylate ototoxicity, hyperacusis and tinnitus in guinea pigs. Hearing research, (2017), and Coomber, B. et al. Neural changes accompanying tinnitus following unilateral acoustic trauma in the guinea pig. Eur J Neurosci 40, 2427-2441, (2014).
(§2) In FIG. 5, sound stimulus (above) and corresponding pinna reflex (below) are shown in freely moving guinea pigs. Stimuli with no gap and gap are presented in a randomised order. Traces contaminated by movement (the upper trace in “no gap”) were removed before analysis.
Tinnitus was induced within 1-2 hours in humans by high doses of salicylate. A similar short-term tinnitus model was implemented in guinea pigs by i.p. injection of salicylate. In all animals, salicylate caused behavioural inhibition of GPIAS (see bar 2 in FIG. 6).
Salicylate (350 mg/kg, i.p.) impairs behavioural gap detection 2 h after salicylate administration (see bar 2 in of FIG. 6). Gap detection was restored by blocking HCN channels with ivabradine (5 mg/kg, s.c.).

[2] = Evaluation of CNS penetration: plasma, brain and auditory nerve levels (Example 55); assay type: in vivo; details: other: injection, guinea pig, 30 min after injection, preliminary, n=2
Protocol: Ivabradine in guinea pig plasma, brain (somatosensory cortex) and auditory nerve were assayed at 30 min after injection, the time used in Example 130. Ratios of total concentrations in preliminary experiments for plasma:brain:auditory nerve were 1:0.12:0.57 (n=2). The small amount (12% of plasma level) detected in brain is largely accounted for by the presence of ivabradine within the vascular supply of the brain. As in other species, therefore, ivabradine is strongly excluded from guinea pig brain because of its hydrophilicity and Pgp substrate activity; see Young, G. T., Emery, E. C., Mooney, […]. […] Pain 155, 1708-1719, (2014).

guinea pigs [3] = assay: Tinnitus, noise-exposure model, GPIAS test (Example 54); assay type: in vivo
Source text: as §1, §2
The noise-exposure model is more clinically relevant than the salicylate model, as it parallels a common cause of tinnitus in humans. A second important point is that it is long-term, while tinnitus induced by salicylate is rapidly reversed following salicylate exposure.
GPIAS returns following drug wash-out (see bar D in FIG. 7).

adult mice = assay type: in vivo; details: tone pulses 3 kHz to 42 kHz
Black6 mice = details: mouse, in vivo, ip; cited from earlier work

Structure (SMILES)	bradycardia (heart rate) (Black6 strain mice)	IC50 (HCN4) [nM]	IC50 (HCN2; PatchXpress protocol (PX)) [nM]	selective for HCN2 over HCN4 (HCN2; PatchXpress protocol (PX) assay) [times]	mechanical analgesia (von Frey pain threshold) (WT Black6 strain mice)	effect on GPIAS (behavioural gap detection) (guinea pigs [1])	Kp at 30 min ([2]; auditory nerve / plasma, read-out: ratio of total concentrations auditory nerve:plasma)	Kp at 0.5 h ([2]; brain (somatosensory cortex) / plasma, somatosensory cortex, read-out: ratio of total concentrations brain:plasma)	effect on reduced GPIAS following noise exposure (guinea pigs [3]; guinea pigs with impaired GPIAS after unilateral noise exposure, 5 mg/kg s.c.)	effect on GPIAS in control experiments (guinea pigs [3]; noise-exposed guinea pigs showing no behavioural evidence of tinnitus, n=3)	effect on ABR threshold or latency (adult mice)	therapeutic window between analgesia and bradycardia (Black6 mice)
Cc1ccc(C#N)nc1C[C@H](N)c1ncccc1-n1ncc2ccccc21 [Example 2, (S)-6-{2-[3-(1H-indazol-1-yl)pyridine-2-yl]-2-aminoethyl}-5-methylpyridin-2-carbonitrile hydrochloride]	minimal bradycardia	500	30	21	full analgesia							
COc1cc2c(cc1OC)CC(=O)N(CCCN(C)C[C@H]1Cc3cc(OC)c(OC)cc31)CC2 [ivabradine]						reversed GPIAS	0.57	0.12	rapidly and completely reversed	without effect on GPIAS	no significant difference	little therapeutic window
